Data on 4 compounds can be found in ChEMBL document CHEMBL3994622, “Design and synthesis of new RAF kinase-inhibiting antiproliferative quinoline derivatives. Part 2: Diarylurea derivatives” (Eur J Med Chem, 2017).

Type in all cases: functional
In experiment [1] the test system is ACHN. The experiment is described as follows: Growth inhibition of human ACHN cells assessed as cell growth at 1 uM incubated for 48 hrs by sulforhodamine B assay relative to control. The following applies: read-out: Activity. (In general: In SRB staining, fixed cells bind dye roughly in proportion to their protein.)
For the next experiment, the system named is OVCAR-8. The experiment is described as follows: Growth inhibition of human OVCAR8 cells assessed as cell growth at 1 uM incubated for 48 hrs by sulforhodamine B assay relative to control. Particulars: OVCAR-8, 48 h, read-out: Activity.
Another experiment has as its system NCI-H226. The experiment can be described thus: Growth inhibition of human NCI-H226 cells assessed as cell growth at 1 uM incubated for 48 hrs by sulforhodamine B assay relative to control. The following applies: NCI-H226, 48 h, read-out: Activity.
The test system of a further experiment is SNB-75. The experiment is described as follows: Growth inhibition of human SNB75 cells assessed as cell growth at 0.01 uM incubated for 48 hrs by sulforhodamine B assay relative to control. The following applies: SNB-75, 48 h, read-out: Activity.
For the next experiment, the system named is OVCAR-5. The experiment is described as follows: Growth inhibition of human OVCAR5 cells assessed as cell growth at 1 uM incubated for 48 hrs by sulforhodamine B assay relative to control. The following applies: OVCAR-5, 48 h, read-out: Activity.
The subject of experiment [2] is Hs-578T. The experiment is described as follows: Growth inhibition of human Hs 578T cells assessed as cell growth at 0.01 uM incubated for 48 hrs by sulforhodamine B assay relative to control. The following applies: read-out: Activity.
The subject of the next experiment is A498. The experiment can be described thus: Growth inhibition of human A498 cells assessed as cell growth at 0.1 uM incubated for 48 hrs by sulforhodamine B assay relative to control. Particulars: A498, 48 h, read-out: Activity.
The subject of another experiment is UO-31. The experiment can be described thus: Growth inhibition of human UO31 cells assessed as cell growth at 100 uM incubated for 48 hrs by sulforhodamine B assay relative to control. Particulars: UO-31, 48 h, read-out: Activity.
For the next experiment, the system named is IGROV-1. The experiment can be described thus: Growth inhibition of human IGROV1 cells assessed as cell growth at 10 uM incubated for 48 hrs by sulforhodamine B assay relative to control. The following applies: IGROV-1, 48 h, read-out: Activity.
The test system of the next experiment is M14. The experiment can be described thus: Growth inhibition of human M14 cells assessed as cell growth at 0.01 uM incubated for 48 hrs by sulforhodamine B assay relative to control. The following applies: M14, 48 h, read-out: Activity.
Experiment [3] relates to OVCAR-4. The experiment can be described thus: Growth inhibition of human OVCAR4 cells assessed as cell growth at 10 uM incubated for 48 hrs by sulforhodamine B assay relative to control. The following applies: OVCAR-4, 48 h, read-out: Activity.
The next experiment relates to SK-MEL-2. The experiment is described as follows: Growth inhibition of human SK-MEL-2 cells assessed as cell growth at 10 uM incubated for 48 hrs by sulforhodamine B assay relative to control. Particulars: SK-MEL-2, 48 h, read-out: Activity.
The test system of experiment [4] is ACHN. The experiment can be described thus: Growth inhibition of human ACHN cells assessed as cell growth at 10 uM incubated for 48 hrs by sulforhodamine B assay relative to control. Particulars: read-out: Activity.
The subject of experiment [5] is RPMI-8226. The experiment can be described thus: Growth inhibition of human RPMI8226 cells assessed as cell growth at 1 uM incubated for 48 hrs by sulforhodamine B assay relative to control. Particulars: RPMI-8226, 48 h, read-out: Activity.
The test system of the next experiment is TK-10. The experiment is described as follows: Growth inhibition of human TK10 cells assessed as cell growth at 10 uM incubated for 48 hrs by sulforhodamine B assay relative to control. The following applies: TK-10, 48 h, read-out: Activity.
Experiment [6] relates to HOP-62. The experiment can be described thus: Growth inhibition of human HOP62 cells assessed as cell growth at 0.01 uM incubated for 48 hrs by sulforhodamine B assay relative to control. Particulars: HOP-62, 48 h, read-out: Activity.
Experiment [7] has as its system UACC-257. The experiment can be described thus: Growth inhibition of human UACC257 cells assessed as cell growth at 100 uM incubated for 48 hrs by sulforhodamine B assay relative to control. Particulars: UACC-257, 48 h, read-out: Activity.
A further experiment relates to COLO 205. The experiment is described as follows: Growth inhibition of human COLO205 cells assessed as cell growth at 1 uM incubated for 48 hrs by sulforhodamine B assay relative to control. Particulars: COLO 205, 48 h, read-out: Activity.
A further experiment deals with MDA-MB-435. The experiment can be described thus: Growth inhibition of human MDA-MB-435 cells assessed as cell growth at 0.01 uM incubated for 48 hrs by sulforhodamine B assay relative to control. The following applies: MDA-MB-435, 48 h, read-out: Activity.
A further experiment concerns 786-0. The experiment is described as follows: Growth inhibition of human 786-0 cells assessed as cell growth at 100 uM incubated for 48 hrs by sulforhodamine B assay relative to control. The following applies: 786-0, 48 h, read-out: Activity.
Experiment [8] deals with HOP-62. The experiment is described as follows: Growth inhibition of human HOP62 cells assessed as cell growth at 10 uM incubated for 48 hrs by sulforhodamine B assay relative to control. The following applies: HOP-62, 48 h, read-out: Activity.
Experiment [9] concerns UACC-257. The experiment can be described thus: Growth inhibition of human UACC257 cells assessed as cell growth at 30 uM incubated for 48 hrs by sulforhodamine B assay relative to control. Particulars: UACC-257, 48 h, read-out: Activity.
A further experiment relates to NCI-H522. The experiment is described as follows: Growth inhibition of human NCI-H522 cells assessed as cell growth at 3 uM incubated for 48 hrs by sulforhodamine B assay relative to control. The following applies: NCI-H522, 48 h, read-out: Activity.
The test system of another experiment is CAKI-1. The experiment can be described thus: Growth inhibition of human Caki1 cells assessed as cell growth at 30 uM incubated for 48 hrs by sulforhodamine B assay relative to control. The following applies: CAKI-1, 48 h, read-out: Activity.
The next experiment relates to KM12. The experiment is described as follows: Growth inhibition of human KM12 cells assessed as cell growth at 30 uM incubated for 48 hrs by sulforhodamine B assay relative to control. The following applies: KM12, 48 h, read-out: Activity.
Experiment [10] has as its system OVCAR-4. The experiment is described as follows: Growth inhibition of human OVCAR4 cells assessed as cell growth at 3 uM incubated for 48 hrs by sulforhodamine B assay relative to control. Particulars: OVCAR-4, 48 h, read-out: Activity.
The next experiment relates to SN12C. The experiment can be described thus: Growth inhibition of human SN12C cells assessed as cell growth at 3 uM incubated for 48 hrs by sulforhodamine B assay relative to control. Particulars: read-out: Activity.
The test system of the next experiment is SF-539. The experiment is described as follows: Growth inhibition of human SF539 cells assessed as cell growth at 3 uM incubated for 48 hrs by sulforhodamine B assay relative to control. The following applies: SF-539, 48 h, read-out: Activity.
For the next experiment, the system named is CCRF-CEM. The experiment is described as follows: Growth inhibition of human CCRF-CEM cells assessed as cell growth at 3 uM incubated for 48 hrs by sulforhodamine B assay relative to control. Particulars: read-out: Activity.
The subject of another experiment is NCI-H322M. The experiment can be described thus: Growth inhibition of human NCI-H322M cells assessed as cell growth at 0.003 uM incubated for 48 hrs by sulforhodamine B assay relative to control. The following applies: read-out: Activity.
The subject of experiment [11] is Hs-578T. The experiment is described as follows: Growth inhibition of human Hs 578T cells assessed as cell growth at 30 uM incubated for 48 hrs by sulforhodamine B assay relative to control. Particulars: read-out: Activity.
For experiment [12], the system named is RPMI-8226. The experiment is described as follows: Growth inhibition of human RPMI8226 cells assessed as cell growth at 30 uM incubated for 48 hrs by sulforhodamine B assay relative to control. The following applies: RPMI-8226, 48 h, read-out: Activity.
Experiment [13] deals with ACHN. The experiment can be described thus: Growth inhibition of human ACHN cells assessed as cell growth at 0.003 uM incubated for 48 hrs by sulforhodamine B assay relative to control. The following applies: read-out: Activity.
Another experiment deals with SK-MEL-5. The experiment can be described thus: Growth inhibition of human SK-MEL-5 cells assessed as cell growth at 30 uM incubated for 48 hrs by sulforhodamine B assay relative to control. The following applies: SK-MEL-5, 48 h, read-out: Activity.

Each structure is given as a SMILES string.

As for `COc1cc2cc(Oc3ccc(NC(=O)Nc4cc(C(F)(F)F)cc(C(F)(F)F)c4)cc3)c(C)nc2cc1OC`, the growth at 1 µM in the experiment with ACHN [1] stood at 17%; in the experiment on OVCAR-8, 76%; in the experiment on NCI-H226, 88%; in the experiment on OVCAR-5 it was 93%; in the experiment with RPMI-8226 [5], 23%; in the experiment on COLO 205, 92%. Further, the growth at 0.01 µM stood at 81% in the experiment with SNB-75; 98% in the experiment on Hs-578T [2]; 92% in the experiment on M14; 88% in the experiment on HOP-62 [6]; 94% with MDA-MB-435. Further, in the experiment on A498, the growth at 0.1 µM came to 93%. Moreover, the growth at 100 µM in the experiment with UO-31 was -89%; in the experiment with UACC-257 [7], -78%; with 786-0, -83%. Moreover, the growth at 10 µM with IGROV-1 was -55%; with OVCAR-4 [3], -31%; with SK-MEL-2 it was -51%; with ACHN [4], -57%; in the experiment on TK-10, 13.2%; in the experiment on HOP-62 [8], -82%.
`Cc1nc2cc(O)c(O)cc2cc1Oc1ccc(NC(=O)Nc2ccc(Cl)c(Cl)c2)cc1`: the growth at 30 µM is -20% in the experiment on UACC-257 [9]; -2% in the experiment with CAKI-1; -1% in the experiment on KM12; 16% with Hs-578T [11]; -22% in the experiment on RPMI-8226 [12]; -47% in the experiment on SK-MEL-5. The growth at 3 µM in the experiment with NCI-H522 turned out to be 65%; in the experiment with OVCAR-4 [10], 87%; in the experiment with SN12C, 92%; in the experiment on SF-539, 103%; in the experiment on CCRF-CEM, 76%. The growth at 0.003 µM in the experiment on NCI-H322M and with ACHN [13] was 103% in each case. Besides, the growth at 10 µM in the experiment with TK-10 was found to be 85.3%.
Consider `COc1cc2cc(Oc3ccc(NC(=O)Nc4ccc(Cl)c(Cl)c4)cc3)c(C)nc2cc1OC`, for which the growth at 1 µM in the experiment on ACHN [1] amounted to 91%; in the experiment with OVCAR-8 it was 96%; with NCI-H226, 106%; with OVCAR-5, 116%; with RPMI-8226 [5] it was 69%; with COLO 205, 109%. Further, the growth at 0.01 µM in the experiment with SNB-75 is 89%; with Hs-578T [2], 100%; with M14, 84%; in the experiment on HOP-62 [6], 102%; in the experiment with MDA-MB-435 it was 94%. For the same compound, the growth at 0.1 µM in the experiment on A498 was 86%. The growth at 100 µM with UO-31 is -57%; in the experiment with UACC-257 [7], -92%; with 786-0, -66%. Also, the growth at 10 µM with IGROV-1 was 30%; in the experiment on OVCAR-4 [3], -8%; with SK-MEL-2 it was -27%; in the experiment with ACHN [4], 5%; with HOP-62 [8] it was 8%.
As to `COc1cc2cc(Oc3ccc(NC(=O)Nc4ccc(Cl)c(C(F)(F)F)c4)cc3)c(C)nc2cc1OC`, the growth at 30 µM in the experiment on UACC-257 [9] is -60%; with CAKI-1, -55%; in the experiment on KM12, -84%; in the experiment with Hs-578T [11] it was -53%; in the experiment with RPMI-8226 [12] it was -47%; with SK-MEL-5, -97%. Further, the growth at 3 µM with NCI-H522 was -8%; in the experiment on OVCAR-4 [10] it was 23%; in the experiment on SN12C, 21%; in the experiment with SF-539, 34%; in the experiment with CCRF-CEM, -2%. Moreover, the growth at 0.003 µM worked out at 91% in the experiment with NCI-H322M and 95% with ACHN [13].
